Measured values from ChEMBL document CHEMBL4043063, “Anti-tuberculosis activity and structure-activity relationships of oxygenated tricyclic carbazole alkaloids and synthetic derivatives” (Bioorg Med Chem, 2017).
Values after ≈ are worked out from the molar mass of the structure shown.

Experiments:
[1] = test system: Mycobacterium tuberculosis; assay: Antitubercular activity against Mycobacterium tuberculosis H37Rv by microplate alamar blue assay; type: functional
Vero = assay: Cytotoxicity against African green monkey Vero cells assessed as reduction in cell viability after 72 hrs by tetrazolium dye assay; type: cell-based; conditions: Chlorocebus sabaeus
[2] = Selectivity index, ratio of IC50 for African green monkey Vero cells to MIC90 for Mycobacterium tuberculosis H37Rv; type: toxicity; conditions: read-out: Selectivity Index

| Structure (SMILES) | MIC90 [1] [µM] | IC50 (Vero) [µM] | selectivity ratio [2] |
| --- | --- | --- | --- |
| Cc1cc2c(cc1O)[nH]c1ccccc12 | 41.5 (≈ 8.19 µg/mL) |  |  |
| COc1ccc2c([nH]c3cc(O)c(C)cc32)c1C=O | > 50 |  |  |
| COc1ccc2[nH]c3c(O)cc(C=O)cc3c2c1 | 6.9 (≈ 1.66 µg/mL) | > 50 | > 7.2 |
| O=C(O)c1cc2c([nH]c3ccccc32)c(-c2c[nH]c3ccccc23)c1O | > 50 |  |  |
| CCCCCCCc1c(C)c(OC)c(OC)c2c1[nH]c1ccccc12 | 6.2 (≈ 2.1 µg/mL) | > 50 | > 8.1 |
| COc1ccc2[nH]c3c(OC)cc(C)cc3c2c1 | 45.1 (≈ 10.9 µg/mL) |  |  |
| Cc1ccc(S(=O)(=O)Oc2cc(C)cc3c2[nH]c2cc(O)ccc23)cc1 | 19.7 (≈ 7.24 µg/mL) |  |  |
| COC(=O)c1cc2c(cc1OC)[nH]c1ccc(OC)cc12 | 24.4 (≈ 6.96 µg/mL) |  |  |
| COC(=O)c1cc2c(cc1O)[nH]c1ccc(O)cc12 | 29.1 (≈ 7.49 µg/mL) |  |  |
| COc1cc2[nH]c3cc(O)ccc3c2cc1C=O | 36.7 (≈ 8.85 µg/mL) |  |  |
| COc1cc2[nH]c3c(C=O)c(OC)ccc3c2cc1C | > 50 |  |  |
| Cc1cc2c(cc1OCc1ccccc1)[nH]c1ccccc12 | > 50 |  |  |
| O=Cc1cc2c(cc1O)[nH]c1c(O)cccc12 | 3.7 (≈ 0.841 µg/mL) | > 50 | > 13 |
| COc1cccc2c1[nH]c1cc(O)c(C)cc12 | > 50 |  |  |
| C#CC(C)(C)Oc1ccc2c(c1)[nH]c1c(OS(=O)(=O)c3ccc(C)cc3)cc(C)cc12 | 20.8 (≈ 9.02 µg/mL) |  |  |
| COC(=O)c1cc2c(cc1O)[nH]c1cc(OC)ccc12 | 47.8 (≈ 13 µg/mL) |  |  |
| COc1ccc2c([nH]c3c(OC)cc(C)cc32)c1OC | 46.9 (≈ 12.7 µg/mL) |  |  |
| CC(C)=CCc1ccc2[nH]c3ccccc3c2c1 | 22.6 (≈ 5.32 µg/mL) |  |  |
| COc1ccc2[nH]c3cc(O)c(C)cc3c2c1 | 1.5 (≈ 0.341 µg/mL) | > 50 | > 33 |
| COc1cc2[nH]c3ccccc3c2cc1C(=O)O | > 50 |  |  |
| COc1ccc2[nH]c3c(OC)cc(C=O)cc3c2c1 | > 50 |  |  |
| CC(C)=CCc1c(O)ccc2c1[nH]c1c(OS(=O)(=O)c3ccc(C)cc3)cc(C)cc12 | 19.4 (≈ 8.45 µg/mL) |  |  |
| CC(C)=CC(=O)Oc1ccc2c(c1)[nH]c1c(OS(=O)(=O)c3ccc(C)cc3)cc(C)cc12 | 6.2 (≈ 2.79 µg/mL) | > 50 | > 8.1 |
| COC(=O)c1cc2c([nH]c3ccccc32)c(-c2cn(S(=O)(=O)c3ccccc3)c3ccccc23)c1O | 2.9 (≈ 1.44 µg/mL) | > 50 | > 17.2 |
| CC(C)=CCC/C(C)=C/Cc1c(O)c(C=O)cc2c1[nH]c1ccccc12 | 24.1 (≈ 8.37 µg/mL) |  |  |
| O=C(O)c1cc2c(cc1O)[nH]c1ccc(O)cc12 | > 50 |  |  |

| Structure (SMILES) | MIC90 [1] [µM] | IC50 (Vero) [µM] | selectivity ratio [2] |
| --- | --- | --- | --- |
| COc1ccc2c([nH]c3c(O)cc(C)cc32)c1CC=C(C)C | 23.1 (≈ 6.82 µg/mL) |  |  |
| Cc1cc2c(cc1OCc1ccccc1)[nH]c1c(O)cccc12 | 11.8 (≈ 3.58 µg/mL) | 33.7 | 2.9 |
| COc1ccc2c(c1)[nH]c1c(Cc3ccccc3)c(O)c(C=O)cc12 | 14.4 (≈ 4.77 µg/mL) | 74.1 | 5.1 |
| COc1cccc2[nH]c3cc(OCc4ccccc4)c(C)cc3c12 | 9.3 (≈ 2.95 µg/mL) | > 50 | > 5.4 |
| COC(=O)c1cc2c([nH]c3ccccc32)c(I)c1O | 24.6 (≈ 9.03 µg/mL) |  |  |
| COc1cccc2c1[nH]c1cc(O)c(C=O)cc12 | 29.3 (≈ 7.07 µg/mL) |  |  |
| COC(=O)c1cc(OC)c2[nH]c3ccc(OC)cc3c2c1 | 46.7 (≈ 13.3 µg/mL) |  |  |
| CC(C)=CCC/C(C)=C/Cc1c(O)ccc2c1[nH]c1c(OS(=O)(=O)c3ccc(C)cc3)cc(C)cc12 | 20.5 (≈ 10.3 µg/mL) |  |  |
| C=CC(C)(C)c1ccc2[nH]c3ccccc3c2c1 | 11 (≈ 2.59 µg/mL) | > 50 | > 4.5 |
| COc1ccc2c([nH]c3cc(O)c(C=O)cc32)c1C=O | 2.8 (≈ 0.754 µg/mL) | 47.1 | 16.8 |
| CC(C)=CCc1c(O)ccc2c1[nH]c1cc(O)c(C)cc12 | 29.4 (≈ 8.27 µg/mL) |  |  |
| CC(C)=CCc1c(O)c(C)cc2c1[nH]c1ccccc12 | 11.1 (≈ 2.95 µg/mL) | > 50 | > 4.5 |
| COc1ccc2c(c1)[nH]c1cc(O)c(C=O)cc12 | 24.3 (≈ 5.86 µg/mL) |  |  |
| COc1ccc2c(c1)[nH]c1c(CC=C(C)C)c(O)c(C=O)cc12 | 20.6 (≈ 6.37 µg/mL) |  |  |
| COc1ccc2c([nH]c3cc(O)c(C)cc32)c1CC=C(C)C | 11.9 (≈ 3.52 µg/mL) | > 50 | > 4.2 |
| COc1ccc2c(c1)[nH]c1cc(O)c(C)cc12 | > 50 |  |  |
| COC1=C(C)C(=O)c2[nH]c3ccccc3c2C1=O [3-METHOXY-2-METHYLCARBAZOLE-1,4-QUINONE] | 4 (≈ 0.965 µg/mL) | > 50 | > 12.5 |
| COc1c(C)c(C[C@@H](C)O)c2[nH]c3ccc(CC=C(C)C)cc3c2c1O [(R)-(-)-NEOCARAZOSTATIN B] | 34.5 (≈ 12.2 µg/mL) |  |  |
| COC(=O)c1cc2c(cc1OC)[nH]c1ccccc12 [CLAUSINE L] | > 50 |  |  |
| COc1cc2[nH]c3ccccc3c2cc1C=O [GLYCOSININE] | 39.6 (≈ 8.92 µg/mL) |  |  |
| COc1ccc2[nH]c3cc(OC)c(C=O)cc3c2c1 [GLYCOZOLIDAL] | > 50 |  |  |
| COc1ccc2[nH]c3cc(OC)c(C)cc3c2c1 [GLYCOZOLIDINE] | > 50 |  |  |
| CC(C)=CCc1c(O)c(C=O)cc2c1[nH]c1ccccc12 [HEPTAPHYLLINE] | > 50 |  |  |
| NNC(=O)c1ccncc1 [ISONIAZID] | 0.24 (≈ 0.0329 µg/mL) | > 50 | > 208 |
| COC(=O)c1cc2c(cc1O)[nH]c1ccccc12 [MUKONIDINE] | 23.3 (≈ 5.62 µg/mL) |  |  |
| CO[C@H]1/C=C/O[C@@]2(C)Oc3c(C)c(O)c4c(O)c(c(/C=N/N5CCN(C)CC5)c(O)c4c3C2=O)NC(=O)/C(C)=C\C=C\[C@H](C)[C@H](O)[C@@H](C)[C@@H](O)[C@@H](C)[C@H](OC(C)=O)[C@@H]1C [RIFAMPIN] | 0.02 (≈ 0.0165 µg/mL) | > 50 | > 2500 |
